Data: patent publication US20230116978A1, “METHOD FOR LIBERATING INTRACELLULAR MATERIAL FROM PLANT CELLS” (Deerland Enzymes, Inc., priority 2021, published 2023)

What was measured:
[1] = Total antioxidant capacity, Folin-Ciocalteu assay (total phenolics assay); conditions: for Total antioxidant capacity: Folin-Ciocalteu, gallic acid reference
Method: Total antioxidant capacity was tested in the Folin-Ciocalteu assay (also known as the total phenolics assay). This assay makes use of the Folin-Ciocalteu reagent to measure antioxidants. The assay is performed by adding the Folin-Ciocalteu's phenol reagent to serial dilutions of extract, thoroughly mixing, and incubating for 5 minutes. Sodium carbonate is added, starting a chemical reaction producing a color. The reaction is allowed to continue for 30 minutes at 37° C. Optical absorbance is measured at 765 nm in a colorimetric plate reader. Gallic acid is used as a reference standard, and the data reported in Gallic Acid Equivalents per gram product.

[2] = system: human polymorphonuclear (PMN) cells; assay: ROS formation by inflammatory PMN cells (H2O2-triggered, DCF-DA, flow cytometry); type: cell-based; conditions: for effect on ROS formation by PMN cells (anti-/pro-inflammatory), in words: H2O2-triggered ROS
Description: In measuring the effect on free radical formation by inflammatory cells, human polymorphonuclear (PMN) cells were used for testing effects of a product on ROS formation. PMN cells constitute approximately 70% of the white blood cells in humans. PMN cells produce high amounts of ROS upon certain inflammatory stimuli. Natural products may affect PMN cell ROS formation by three different mechanisms: 1. […] Triggering an anti-inflammatory cellular signal, leading to reduced ROS formation; 3. Triggering an immune reaction, leading to enhanced ROS formation. The effects of test products were measured by exposing freshly purified human PMN cells to the test products. During the incubation with a test product, any antioxidant compounds able to cross the cell membrane can enter the interior of the PMN cells, and compounds that trigger a signaling event can do so. Then the cells are washed, loaded with the DCF-DA dye, which turns fluorescent upon exposure to ROS. Formation of ROS is triggered by addition of H2O2. The fluorescence intensity of the PMN cells is evaluated by flow cytometry. The low fluorescence intensity of untreated control cells serves as a baseline and PMN cells treated with H2O2 alone serve as a positive control. […] The testing was performed on cells from a healthy donor. […]

human RBC = assay: Cellular antioxidant protection, CAP-e bioassay; type: cell-based; conditions: for Cellular antioxidant Protection (CAP-e value): human RBC, AAPH oxidation
Method: Cell-based antioxidant protection was measured via a CAP-e bioassay. […] The CAP-e bioassay was specifically designed to work with natural products and ingredients. The red blood cell (RBC) was used as the model cell type as it is an inert cell type, in contrast to other cell types such as PMN cells. The red blood cell-based assay was developed particularly to be able to assess antioxidants from complex natural products in a cell-based system, as well as help interpret subsequent data from more complex cellular models. Freshly purified human RBC are washed repeatedly in physiological saline, and then exposed to the test products. During the incubation with a test product, any antioxidant compounds able to cross the cell membrane can enter the interior of the RBC. Then the RBC are washed to remove compounds that were not absorbed by the cells, and loaded with the DCF-DA dye, which turns fluorescent upon exposure to reactive oxygen species (ROS). Oxidation is triggered by addition of the peroxyl free radical generator AAPH. The fluorescence intensity is evaluated. The low fluorescence intensity of untreated control cells serves as a baseline, and RBC treated with AAPH alone serve as a positive control for maximum oxidative damage. […] Based on the low fluorescence of the untreated control wells, and the high fluorescence of the cell cultures exposed to oxidative damage, the fluorescence intensity in cell cultures treated with test products prior to exposure to oxidative stress is used to calculate the percent inhibition of cellular oxidative stress.

Structure (SMILES)	total antioxidant capacity, comparison in words [1]	Total antioxidant capacity [1]	effect on ROS formation by PMN cells (anti-/pro-inflammatory), in words [2]	effect on ROS formation by PMN cells at the highest/higher doses ([2]; highest or higher doses)	cellular antioxidant protection, comparison in words (human RBC)	Cell lysing (human RBC; highest concentration tested)	Cellular antioxidant Protection (CAP-e value) (human RBC)
N[C@@H](CCC(=O)N[C@@H](CS)C(=O)NCC(=O)O)C(=O)O [L-glutathione, reduced]	had more antioxidant capacity than SOLARPLAST®	153 mg GAE per gram	less anti-inflammatory capacity than the SOLARPLAST® post-aqueous fraction	robust increase in ROS formation	had more antioxidant capacity than SOLARPLAST®	Cell lysing occurred	619 μM GA/gram
CC1=C(/C=C/C(C)=C/C=C/C(C)=C/C=C/C=C(C)/C=C/C=C(C)/C=C/C2=C(C)C(=O)[C@@H](O)CC2(C)C)C(C)(C)C[C@H](O)C1=O [Astaxanthin]		2 mg GAE per gram	less anti-inflammatory capacity than the SOLARPLAST® post-aqueous fraction				
Oc1ccc(C=Cc2cc(O)cc(O)c2)cc1 [Resveratrol]			considerably more anti-inflammatory capabilities than any of the fractions of SOLARPLAST®		had more antioxidant capacity than SOLARPLAST®		235 μM GA/gram
